Reference: ChEMBL document CHEMBL5325490, “Lipophilic modification of salirasib modulates the antiproliferative and antimigratory activity” (Bioorg Med Chem, 2023)
Activity calls are given as the source filed them. The rule behind the calls is not given here.

How the values were obtained:
[1] = test system: Plasmodium falciparum; experiment: Antimalarial activity against Plasmodium falciparum assessed as inhibition of parasite growth measured after 72 hrs by NLuc method; format: functional, organism-based
[2] = test system: A549; experiment: Antiproliferative activity against human A549 cells assessed as inhibition of culture growth incubated for 48 hrs by SRB assay; format: functional
[3] = test system: HeLa; experiment: Antiproliferative activity against human HeLa cells assessed as inhibition of culture growth incubated for 48 hrs by SRB assay; format: functional
[4] = test system: SW1573; experiment: Antiproliferative activity against human SW1573 cells assessed as inhibition of culture growth incubated for 48 hrs by SRB assay; format: functional
[5] = test system: T47D; experiment: Antiproliferative activity against human T47D cells assessed as inhibition of culture growth incubated for 48 hrs by SRB assay; format: functional
[6] = test system: HBL-100; experiment: Antiproliferative activity against human HBL-100 cells assessed as inhibition of culture growth incubated for 48 hrs by SRB assay; format: functional
[7] = test system: NCI-H1299; experiment: Antiproliferative activity against human H1299 cells assessed as inhibition of culture growth incubated for 48 hrs by SRB assay; format: functional
[8] = test system: NCI-H1299; experiment: Antimigratory activity against human H1299 cells assessed as reduction in cell migration at 50 uM incubated for 24 hrs by wound healing assay; format: functional, cell-based
[9] = test system: NCI-H1299; experiment: Anti-invasive activity in human H1299 cells assessed as reduction in cell invasion at 50 uM incubated for 24 hrs by transwell migration assay; format: functional, cell-based

SMILES	GI50 [2]	GI50 [3]	GI50 [4]	GI50 [5]	GI50 [7]	IC50 [1]	GI50 [6]	Activity [8]	Activity [9]
CC(C)=CCC/C(C)=C/CC/C(C)=C/Cn1cc(CSc2ccccc2C(=O)O)nn1	40 µM	33 µM	40 µM	52 µM	102 µM		33 µM		
CC(C)=CCC/C(C)=C/Cn1cc(CSc2ccccc2C(=O)O)nn1								inactive	
CC[C@@]1(O)C(=O)OCc2c1cc1n(c2=O)Cc2cc3ccccc3nc2-1 [CAMPTOTHECIN]		0.6 µM	0.3 µM	2 µM			0.2 µM		
CC(C)=CCC/C(C)=C/CSc1ccccc1C(=O)O								Active	Active
COc1cc([C@@H]2c3cc4c(cc3[C@@H](O[C@@H]3O[C@@H]5CO[C@@H](C)O[C@H]5[C@H](O)[C@H]3O)[C@H]3COC(=O)[C@H]23)OCO4)cc(OC)c1O [ETOPOSIDE]	1.5 µM	3.3 µM	14 µM	22 µM			1.4 µM		
CCCCCCCCCCSc1ccccc1C(=O)O								Active	inactive
CCCCCCCCn1cc(CSc2ccccc2C(=O)O)nn1	61 µM	39 µM	47 µM	93 µM	> 100 µM		40 µM	inactive	
CCCCCCCCCCCCCCCCn1cc(CSc2ccccc2C(=O)O)nn1	9.2 µM	6.9 µM	9.3 µM	20 µM	27 µM		14 µM		
CCCCCCCCSc1ccccc1C(=O)O								Active	Active

Now from value to compound, other results behind:

GI50 [2]	GI50 [3]	GI50 [4]	GI50 [5]	GI50 [7]	SMILES	IC50 [1]	GI50 [6]	Activity [8]	Activity [9]
5.4 µM	4.3 µM	5.8 µM	9.6 µM	59 µM	C/C(=C\Cn1cc(CSc2ccccc2C(=O)O)nn1)CCC[C@H](C)CCC[C@H](C)CCCC(C)C	9.75 µM	10 µM		
38 µM	29 µM	37 µM	41 µM		CC(C)=CCC/C(C)=C/CC/C(C)=C/CC/C(C)=C/CSc1ccccc1C(=O)O		23 µM		
14 µM	12 µM	15 µM	18 µM	> 100 µM	C/C(=C\CSc1ccccc1C(=O)O)CCCC(C)CCCC(C)CCCC(C)C (centres undefined)		14 µM		
34 µM	34 µM	41 µM	42 µM	85 µM	CC(C)=CCC/C(C)=C/CC/C(C)=C/CSc1ccccc1C(=O)O [SALIRASIB]		22 µM		
